# According to patent US20250288683A1, “TETRAHYDROISOQUINOLINE HETEROBIFUNCTIONAL BCL-XL DEGRADERS” (Treeline Biosciences, Inc., priority 2022, published 2025):
# Target: T1, Human BCL-XL protein (N-terminal HiBiT tagged BCL-XL in HT1080 cells) (Homo sapiens, UniProt Q07817)
# T1 construct: expressed in transfected cells; host or cells: HT-1080 (ATCC CCL-121), stably transduced with lentivirus pLV-UBC-N-HiBiT-BCL-XL-PGK-puro and selected with puromycin
# Assay: HiBiT based degradation assay
# Assay type: cell-based
# Conditions: HT1080 cells expressing N-terminal HiBiT tagged BCL-XL, 24 h, normalized with DMSO control
# T1 sequence (Q07817 whole entry): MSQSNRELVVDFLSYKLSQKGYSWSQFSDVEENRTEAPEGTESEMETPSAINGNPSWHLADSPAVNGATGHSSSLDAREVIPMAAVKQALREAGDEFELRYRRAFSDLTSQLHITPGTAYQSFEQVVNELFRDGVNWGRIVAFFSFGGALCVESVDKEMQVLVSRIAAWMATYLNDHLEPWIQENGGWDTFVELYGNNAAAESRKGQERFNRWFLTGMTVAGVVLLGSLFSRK
row,Ymin (24 h),Structure (SMILES)
1,A (Ymin < 50%),"Cc1ncsc1-c1ccc(CNC(=O)[C@@H]2C[C@@H](O)CN2C(=O)[C@@H](NC(=O)C2(F)CC2)C(C)(C)SCCCCCCCCOc2cccc(-c3ccc(N4CCc5cccc(C(=O)Nc6nc7ccccc7s6)c5C4)nc3C(=O)O)c2C)cc1 [Compound 136a, 6-(8-(benzo[d]thiazol-2-ylcarbamoyl)-3,4-dihydroisoquinolin-2 (1H)-yl)-3-(3-((8-(((R)-3-(1-fluorocyclopropane-1-carboxamido)-4-((2S,4R)-4-hydroxy-2-((4-(4-methylthiazol-5-yl)benzyl)carbamoyl)pyrrolidin-1-yl)-2-methyl-4-oxobutan-2-yl)thio)octyl)oxy)-2-methylphenyl)picolinic acid]"
2,B (50% ≤ Ymin < 70%),"Cc1ncsc1-c1ccc(CNC(=O)[C@@H]2C[C@@H](O)CN2C(=O)[C@@H](NC(=O)C2(F)CC2)C(C)(C)SCCCCCCCCCCOc2cccc(-c3ccc(N4CCc5cccc(C(=O)Nc6nc7ccccc7s6)c5C4)nc3C(=O)O)c2C)cc1 [Compound 137a, 6-(8-(benzo[d]thiazol-2-ylcarbamoyl)-3,4-dihydroisoquinolin-2 (1H)-yl)-3-(3-((10-(((R)-3-(1-fluorocyclopropane-1-carboxamido)-4-((2S,4R)-4-hydroxy-2-((4-(4-methylthiazol-5-yl)benzyl)carbamoyl)pyrrolidin-1-yl)-2-methyl-4-oxobutan-2-yl)thio)decyl)oxy)-2-methylphenyl)picolinic acid]"
3,A (Ymin < 50%),Cc1ncsc1-c1ccc([C@H](C)NC(=O)[C@@H]2C[C@@H](O)CN2C(=O)[C@@H](NC(=O)C(F)(F)CCc2ccc(Oc3cccc(-c4ccc(N5CCc6cccc(C(=O)Nc7nc8ccccc8s7)c6C5)nc4C(=O)O)c3C)cc2)C(C)(C)C)cc1 [Compound 139a]
4,B (50% ≤ Ymin < 70%),Cc1ncsc1-c1ccc(CNC(=O)[C@@H]2C[C@@H](O)CN2C(=O)[C@@H](NC(=O)C2(F)CC2)C(C)(C)SCCCCCCCOc2cccc(-c3ccc(N4CCc5cccc(C(=O)Nc6nc7ccccc7s6)c5C4)nc3C(=O)O)c2C)cc1 [Compound 140a]
5,A (Ymin < 50%),Cc1ncsc1-c1ccc(CNC(=O)[C@@H]2C[C@@H](O)CN2C(=O)[C@@H](NC(=O)C2(F)CC2)C(C)(C)SCCCCCCCCCOc2cccc(-c3ccc(N4CCc5cccc(C(=O)Nc6nc7ccccc7s6)c5C4)nc3C(=O)O)c2C)cc1 [Compound 141a]
6,B (50% ≤ Ymin < 70%),Cc1ncsc1-c1ccc(CNC(=O)[C@@H]2C[C@@H](O)CN2C(=O)[C@@H](NC(=O)C2(F)CC2)C(C)(C)SCCCCCCCCCCCCOc2cccc(-c3ccc(N4CCc5cccc(C(=O)Nc6nc7ccccc7s6)c5C4)nc3C(=O)O)c2C)cc1 [Compound 142a]
7,A (Ymin < 50%),Cc1ncsc1-c1ccc([C@H](C)NC(=O)[C@@H]2C[C@@H](O)CN2C(=O)[C@@H](NC(=O)C(F)(F)[C@H]2CC[C@H](Oc3cccc(-c4ccc(N5CCc6cccc(C(=O)Nc7nc8ccccc8s7)c6C5)nc4C(=O)O)c3C)CC2)C(C)(C)C)cc1 [Compound 144a]
8,C (Ymin ≥ 70%),Cc1ncsc1-c1ccc([C@H](C)NC(=O)[C@@H]2C[C@@H](O)CN2C(=O)[C@@H](NC(=O)C(F)(F)[C@H]2CC[C@@H](Oc3cccc(-c4ccc(N5CCc6cccc(C(=O)Nc7nc8ccccc8s7)c6C5)nc4C(=O)O)c3C)CC2)C(C)(C)C)cc1 [Compound 144b]
